Experimental data: patent US12384808B2, “Modulators of TNF-α activity” (Forward Therapeutics, Inc., priority 2022, dated 2025)

Target: TNFα (Homo sapiens, UniProt P01375)
Assay: TNFα Induced HEK Blue Cellular Assay
Assay type: cell-based
Settings: HEK Blue TNFα reporter cells, TNFα 100 pg/ml, 24 hrs at 37° C., secreted alkaline phosphatase (QUANTI-Blue) read at 620 nm; read-out: IC50 value
Method: TNFα Induced HEK Blue Cellular Assay
Test articles were diluted in DMSO and serially diluted into 384 well assay plate (Corning 3765), at final concentrations ranging from […] to 0.5 nM. HEK Blue™ TNFα reporter cells were added at a final density of 10,000 cell per well in assay media [DMEM (Gibco, cat #21063-029), 10% fetal bovine serum (ExcelBio, cat #FND500), 1% Penicillin-Streptomycin (Solarbio, cat #P1400-100]. TNFα (R&D 210-TA-020/CF) was then added to the assay plate at a final concentration of 100 pg/ml. This plate was then incubated for 24 hrs at 37° C. and 5% CO2. Secreted alkaline phosphatase expression was then measured using QUANTI-Blue™ (Invivogen), according to manufacturer instructions and read on an Envision microplate reader at 620 nm.
Inhibition data for test compound over a range of concentration was plotted as percentage inhibition of the test compound (100%=maximum inhibition). IC50 values were determined after correcting for background [(sample read−mean of low control)/(mean of high control−mean of low control)] where by the low control is DMSO without stimulation and high control is DMSO with stimulation. The IC50 is defined as the concentration of test compound which produces 50% inhibition and was quantified using the 4 parameter logistic equation to fit the data.

TNFα, sequence (P01375 77-233 limits assumed): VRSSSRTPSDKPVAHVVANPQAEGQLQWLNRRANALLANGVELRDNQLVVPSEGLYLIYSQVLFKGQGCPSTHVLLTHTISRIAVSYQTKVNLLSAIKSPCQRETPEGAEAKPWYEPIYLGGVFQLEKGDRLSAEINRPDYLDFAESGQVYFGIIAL

Row | IC50 | SMILES
1 | < 100 nM | CN1C(=O)c2cccc(OC(F)F)c2[C@H]2C[C@@H]1c1nc3ccc(-c4ccc(P(C)(C)=O)cc4Cl)cc3n12 [Example 27, (1R,11R)-5-[2-chloro-4-(dimethylphosphoryl)phenyl]-18-(difluoromethoxy)-12-methyl-2,9,12-triazapentacyclo[9.8.1.0^{2,10}.0^{3,8}.0^{14,19}]icosa-3(8),4,6,9,14(19),15,17-heptaen-13-one]
2 | < 100 nM | CP(C)(=O)c1ccc(-c2ccc3nc4n(c3c2)[C@@H]2C[C@H]4NC(=O)c3cccc(OC(F)F)c32)c(F)c1F [Example 34, (1R,11R)-18-(difluoromethoxy)-5-[4-(dimethylphosphoryl)-2,3-difluorophenyl]-2,9,12-triazapentacyclo[9.8.1.0^{2,10}.0^{3,8}.0^{14,19}]icosa-3(8),4,6,9,14(19),15,17-heptaen-13-one]
3 | < 100 nM | [2H]C([2H])([2H])N1C(=O)c2cccc(OC(F)F)c2[C@H]2C[C@@H]1c1nc3ccc(-c4cc(F)c(P(C)(C)=O)c(F)c4)cc3n12 [Example 60, (7R,14R)-1-(difluoromethoxy)-11-(4-(dimethylphosphoryl)-3,5-difluorophenyl)-6-(methyl-d3)-6,7-dihydro-7,14-methanobenzo[f]benzo[4,5]imidazo[1,2-a][1,4]diazocin-5(14H)-one]
4 | 100 to 1000 nM | [2H]C([2H])([2H])N1C(=O)c2cccc(OC(F)F)c2[C@H]2C[C@@H]1c1nc3cc(F)c(-c4ccc(P(C)(C)=O)cc4)cc3n12 [Example 64, (7R,14R)-1-(difluoromethoxy)-11-(4-(dimethylphosphoryl)phenyl)-10-fluoro-6-(methyl-d3)-6,7-dihydro-7,14-methanobenzo[f]benzo[4,5]imidazo[1,2-a][1,4]diazocin-5(14H)-one]
5 | < 100 nM | [2H]C([2H])([2H])N1C(=O)c2cccc(OC(F)F)c2[C@H]2C[C@@H]1c1nc3ccc(-c4ccc(CP(C)(C)=O)c(F)c4)cc3n12 [Example 68, (7R,14R)-1-(difluoromethoxy)-11-(4-((dimethylphosphoryl)methyl)-3-fluorophenyl)-6-(methyl-d3)-6,7-dihydro-7,14-methanobenzo[f]benzo[4,5]imidazo[1,2-a][1,4]diazocin-5(14H)-one]
6 | < 100 nM | [2H]C([2H])([2H])N1C(=O)c2cccc(OC(F)F)c2[C@H]2C[C@@H]1c1nc3ccc(-c4ccc(OCP(C)(C)=O)nc4)cc3n12 [Example 15, (7R,14R)-1-(difluoromethoxy)-11-(6-((dimethylphosphoryl)methoxy)pyridin-3-yl)-6-(methyl-d3)-6,7-dihydro-7,14-methanobenzo[f]benzo[4,5]imidazo[1,2-a][1,4]diazocin-5(14H)-one]
7 | < 100 nM | CP(C)(=O)c1ccc(-c2ccc3nc4n(c3c2)[C@@H]2C[C@H]4NC(=O)c3cccc(OC(F)F)c32)c(F)c1 [Example 31, (1R,11R)-18-(difluoromethoxy)-5-[4-(dimethylphosphoryl)-2-fluorophenyl]-2,9,12-triazapentacyclo[9.8.1.0^{2,10}.0^{3,8}.0^{14,19}]icosa-3(8),4,6,9,14(19),15,17-heptaen-13-one]
8 | < 100 nM | [2H]C([2H])([2H])N1C(=O)c2cccc(OC(F)F)c2[C@H]2C[C@@H]1c1nc3ccc(-c4cc(F)c(P(C)(C)=O)cc4C)cc3n12 [Example 88, (7R,14R)-1-(difluoromethoxy)-11-(4-(dimethylphosphoryl)-5-fluoro-2-methylphenyl)-6-(methyl-d3)-6,7-dihydro-7,14-methanobenzo[f]benzo[4,5]imidazo[1,2-a][1,4]diazocin-5(14H)-one]
9 | < 100 nM | CN1C(=O)c2cccc(OC(F)F)c2[C@H]2C[C@@H]1c1nc3ccc(-c4cc(F)c(CP(C)(C)=O)c(F)c4)cc3n12 [Example 77, (7R,14R)-1-(difluoromethoxy)-11-(4-((dimethylphosphoryl)methyl)-3,5-difluorophenyl)-6-methyl-6,7-dihydro-7,14-methanobenzo[f]benzo[4,5]imidazo[1,2-a][1,4]diazocin-5(14H)-one]
10 | < 100 nM | [2H]C([2H])([2H])N1C(=O)c2cccc(OC(F)F)c2[C@H]2C[C@@H]1c1nc3ccc(-c4cc(F)c(C(C)P(C)(C)=O)cc4C)cc3n12 (single isomer, unassigned) [Example 118, (7R,14R)-1-(difluoromethoxy)-11-(4-((R or S)-1-(dimethylphosphoryl)ethyl)-5-fluoro-2-methylphenyl)-6-(methyl-d3)-6,7-dihydro-7,14-methanobenzo[f]benzo[4,5]imidazo[1,2-a][1,4]diazocin-5(14H)-one]
11 | < 100 nM | CN1C(=O)c2cccc(OC(F)F)c2[C@H]2C[C@@H]1c1nc3ccc(-c4cc(F)c(P(C)(C)=O)c(F)c4)cc3n12 [Example 37, (1R,11R)-18-(difluoromethoxy)-5-[4-(dimethylphosphoryl)-3,5-difluorophenyl]-12-methyl-2,9,12-triazapentacyclo[9.8.1.0^{2,10}.0^{3,8}.0^{14,19}]icosa-3(8),4,6,9,14(19),15,17-heptaen-13-one]
12 | < 100 nM | [2H]C([2H])([2H])N1C(=O)c2cccc(OC(F)F)c2[C@H]2C[C@@H]1c1nc3ccc(-c4ccc(P(C)(C)=O)c(F)n4)cc3n12 [Example 115, (7R,14R)-1-(difluoromethoxy)-11-(5-(dimethylphosphoryl)-6-fluoropyridin-2-yl)-6-(methyl-d3)-6,7-dihydro-7,14-methanobenzo[f]benzo[4,5]imidazo[1,2-a][1,4]diazocin-5(14H)-one]
13 | < 100 nM | [2H]C([2H])([2H])N1C(=O)c2cccc(OC(F)(F)F)c2[C@H]2C[C@@H]1c1nc3ccc(-c4ccc(P(C)(C)=O)c(F)c4)cc3n12 [Example 128, (7R,14R)-11-(4-(dimethylphosphoryl)-3-fluorophenyl)-6-(methyl-d3)-1-(trifluoromethoxy)-6,7-dihydro-7,14-methanobenzo[f]benzo[4,5]imidazo[1,2-a][1,4]diazocin-5(14H)-one]
14 | < 100 nM | CN(CP(C)(C)=O)c1ccc(-c2ccc3nc4n(c3c2)[C@@H]2C[C@H]4N(C)C(=O)c3cccc(OC(F)F)c32)cn1 [Example 30, (1R,11R)-18-(difluoromethoxy)-5-(6-{[(dimethylphosphoryl)methyl](methyl)amino}pyridin-3-yl)-12-methyl-2,9,12-triazapentacyclo[9.8.1.0^{2,10}.0^{3,8}.0^{14,19}]icosa-3(8),4,6,9,14(19),15,17-heptaen-13-one]
15 | 1000 to 10000 nM | CP(C)(=O)COc1ncc(-c2ccc3nc4n(c3c2)[C@@H]2C[C@H]4NC(=O)c3cccc(OC(F)F)c32)cn1 [Example 12, (1R,11R)-18-(difluoromethoxy)-5-(2-[(dimethylphosphoryl)methoxy]pyrimidin-5-yl)-2,9,12-triazapentacyclo[9.8.1.0^{2,10}.0^{3,8}.0^{14,19}]icosa-3(8),4,6,9,14(19),15,17-heptaen-13-one]
16 | < 100 nM | [2H]C([2H])([2H])N1C(=O)c2cccc(OC(F)F)c2[C@H]2C[C@@H]1c1nc3ccc(-c4ccc(P(C)(C)=O)c(F)c4F)cc3n12 [Example 52, (7R,14R)-1-(difluoromethoxy)-11-(4-(dimethylphosphoryl)-2,3-difluorophenyl)-6-(methyl-d3)-6,7-dihydro-7,14-methanobenzo[f]benzo[4,5]imidazo[1,2-a][1,4]diazocin-5(14H)-one]
